{"source": "patent US20230104936A1", "about": "“TRPML MODULATORS” (Casma Therapeutics, Inc., priority 2019, published 2023)", "tested_on": "TFEB", "experiment": "TFEB nuclear translocation assay, HeLa wt cells", "format": "cell-based", "conditions": "2 hrs compound treatment, Table 1 does not say HeLa wt or TRPML1 KO", "summary_of_the_method": "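TFEB translocation into the nucleus of HeLa wt cells is scored by high-content immunofluorescence after 2 hrs of compound treatment at 37° C, reported as AC50.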", "data": [{"smiles": "CN(C)S(=O)(=O)c1ccc(S(=O)(=O)Nc2nnc(C3CCN(c4ccc(Cl)cc4F)CC3)s2)cc1", "note": "[Compound A-64, N1-(5-(1-(4-chloro-2-fluorophenyl)piperidin-4-yl)-1,3,4-thiadiazol-2-yl)-N4,N4-dimethylbenzene-1,4-disulfonamide]", "values": [{"measurement": "AC50", "setting": "Homo sapiens, HeLa, 2 h", "value": "≥ 10", "unit": "µM"}]}, {"smiles": "CC1(C)CC2(CCN(c3ccccc3NS(=O)(=O)c3cccc(C4CC4(F)F)c3)CC2)CO1", "note": "(stereo not shown) [Compound A-687, 3-(2,2-difluorocyclopropyl)-N-(2-{3,3-dimethyl-2-oxa-8-azaspiro[4.5]decan-8-yl}phenyl)benzene-1-sulfonamide]", "values": [{"measurement": "AC50", "setting": "Homo sapiens, HeLa, 2 h", "value": "≤ 2", "unit": "µM"}]}, {"smiles": "CN(C)S(=O)(=O)c1ccc(S(=O)(=O)Nc2ccccc2N2CCN(CCF)CC2)cc1", "note": "[Compound A-559, N4-{2-[4-(2-fluoroethyl)piperazin-1-yl]phenyl}-N1,N1-dimethylbenzene-1,4-disulfonamide]", "values": [{"measurement": "AC50", "setting": "Homo sapiens, HeLa, 2 h", "value": "2.01 to 8", "unit": "µM"}]}, {"smiles": "Cc1ccc(CS(=O)(=O)Nc2ccccc2N2CCC3(CC2)COC(C)(C)C3)c(F)c1", "note": "[Compound A-688, N-(2-{3,3-dimethyl-2-oxa-8-azaspiro[4.5]decan-8-yl}phenyl)-1-(2-fluoro-4-methylphenyl)methanesulfonamide]", "values": [{"measurement": "AC50", "setting": "Homo sapiens, HeLa, 2 h", "value": "2.01 to 8", "unit": "µM"}]}, {"smiles": "CN(C)S(=O)(=O)c1ccc(S(=O)(=O)Nc2cc(Cl)nnc2N2CCC(c3ccc(Cl)cc3F)CC2)cc1", "note": "[Compound A-129, N4-{6-chloro-3-[4-(4-chloro-2-fluorophenyl)piperidin-1-yl]pyridazin-4-yl}-N1,N1-dimethylbenzene-1,4-disulfonamide]", "values": [{"measurement": "AC50", "setting": "Homo sapiens, HeLa, 2 h", "value": "≥ 10", "unit": "µM"}]}, {"smiles": "CC(C)(C)S(=O)(=O)c1ccc(S(=O)(=O)Nc2cc(Cl)ccc2N2CCOCC2)cc1", "note": "[Compound A-276, N-[5-chloro-2-(morpholin-4-yl)phenyl]-4-(2-methylpropane-2-sulfonyl)benzene-1-sulfonamide]", "values": [{"measurement": "AC50", "setting": "Homo sapiens, HeLa, 2 h", "value": "≥ 10", "unit": "µM"}]}, {"smiles": "CC(c1cccc(C#N)c1N1CCC(CN2C[C@@H](C)O[C@@H](C)C2)CC1)S(=O)(=O)c1ccc(S(=O)(=O)N(C)C)cc1", "note": "(single isomer, unassigned) [Compound A-854, 4-((1-(3-cyano-2-(4-((2,6-dimethylmorpholino)methyl)piperidin-1-yl)phenyl)ethyl)sulfonyl)-N,N-dimethylbenzenesulfonamide]", "values": [{"measurement": "AC50", "value": "≤ 2", "unit": "µM"}]}, {"smiles": "Cc1nc(C2CCN(c3ccc(Cl)cc3F)CC2)cn1S(=O)(=O)c1ccc(S(=O)(=O)N(C)C)cc1", "note": "[Compound A-39, 4-((4-(1-(4-chloro-2-fluorophenyl)piperidin-4-yl)-2-methyl-1H-imidazol-1-yl)sulfonyl)-N,N-dimethylbenzenesulfonamide]", "values": [{"measurement": "AC50", "setting": "Homo sapiens, HeLa, 2 h", "value": "2.01 to 8", "unit": "µM"}]}, {"smiles": "CN(C)S(=O)(=O)c1ccc(C(Nc2ccccc2N2CCC(c3ccc(Cl)cc3F)CC2)C(F)(F)F)cc1", "note": "(stereo not shown) [Compound A-170, 4-[1-({2-[4-(4-chloro-2-fluorophenyl)piperidin-1-yl]phenyl}amino)-2,2,2-trifluoroethyl]-N,N-dimethylbenzene-1-sulfonamide]", "values": [{"measurement": "AC50", "setting": "Homo sapiens, HeLa, 2 h", "value": "≤ 2", "unit": "µM"}]}, {"smiles": "Cc1nc2ccc(S(=O)(=O)Nc3ccccc3N3CCN(C(=O)C(C)(C)C)CC3)cc2s1", "note": "[Compound A-600, N-{2-[4-(2,2-dimethylpropanoyl)piperazin-1-yl]phenyl}-2-methyl-1,3-benzothiazole-6-sulfonamide]", "values": [{"measurement": "AC50", "setting": "Homo sapiens, HeLa, 2 h", "value": "≥ 10", "unit": "µM"}]}, {"smiles": "CN(C)S(=O)(=O)c1ccc(S(=O)(=O)Nc2ccccc2N2CCP(=O)(c3ccc(F)cc3)CC2)cc1", "note": "[Compound A-232, N4-{2-[4-(4-fluorophenyl)-4-oxo-1,4λ^5-azaphosphinan-1-yl]phenyl}-N1,N1-dimethylbenzene-1,4-disulfonamide]", "values": [{"measurement": "AC50", "setting": "Homo sapiens, HeLa, 2 h", "value": "≥ 10", "unit": "µM"}]}, {"smiles": "CC(c1ccccc1N1CCN(C2COC2)CC1)S(=O)(=O)c1ccc(S(=O)(=O)N(C)C)cc1", "note": "(stereo not shown) [Compound A-603, N,N-dimethyl-4-(1-{2-[4-(oxetan-3-yl)piperazin-1-yl]phenyl}ethanesulfonyl)benzene-1-sulfonamide]", "values": [{"measurement": "AC50", "setting": "Homo sapiens, HeLa, 2 h", "value": "2.01 to 8", "unit": "µM"}]}, {"smiles": "Cc1nn(C)c(NS(=O)(=O)c2ccc(S(=O)(=O)N(C)C)cc2)c1C1CCN(c2ccc(Cl)cc2F)CC1", "note": "[Compound A-75, N1-(4-(1-(4-chloro-2-fluorophenyl)piperidin-4-yl)-1,3-dimethyl-1H-pyrazol-5-yl)-N4,N4-dimethylbenzene-1,4-disulfonamide]", "values": [{"measurement": "AC50", "setting": "Homo sapiens, HeLa, 2 h", "value": "≥ 10", "unit": "µM"}]}]}
